Source: patent publication US10508098B2, “Quinazolinones and azaquinazolinones as ubiquitin-specific protease 7 inhibitors” (FORMA Therapeutics, Inc., priority 2015, dated 2019)
pIC50: −log10 of the molar value.

Target: USP7 (Homo sapiens (Human), UniProt Q93009)
Assay: USP7 Assays A and B (Ubiquitin-Rhodamine 110 assay)
Format: biochemical
Conditions: USP7 (208-1102) 6*His; substrate Ub-Rh110 25 nM; assays A and B not distinguished
Experimental: Example 9: USP7 Assay A (Ubitquin-Rhodamine 110 Assay)
Each assay was performed in a final volume of 15 μL in assay buffer containing 20 mM Tris-HCl (pH 8.0, (1M Tris-HCl, pH 8.0 solution; Corning 46-031-CM)), 1 mM GSH (L-Glutathione reduced; Sigma #G4251), 0.03% BGG (0.22 μM filtered, Sigma, #G7516-25G), and 0.01% Triton X-100 (Sigma, #T9284-10L). Nanoliter quantities of either an 8-point or 10-point, 3-fold serial dilution in DMSO was pre-dispensed into assay plates (Perkin Elmer, ProxiPlate-384 F Plus, #6008269) for a final test concentration range of either 25 μM to 11 nM or 25 μM to 1.3 nM, respectively. The final concentration of the enzyme (USP7, construct USP7 (208-1102) 6*His, Viva Biotech) in the assay was 62.5 pM. Final substrate (Ub-Rh110; Ubiquitin-Rhodamine 110, R&D Systems #U-555) concentration was 25 nM with [Ub-Rh110]<<Km. 5 μL of 2× enzyme was added to assay plates (pre-stamped with compound) preincubated with USP7 for 30 min and then 5 μL of 2×Ub-Rh110 was added to assay plates. Plates were incubated stacked for 20 min at room temperature before 5 μL of stop solution (final concentration of 10 mM citric acid in assay buffer (Sigma, #251275-500G)). Fluorescence was read on the Envision (Excitation at 485 nm and Emission at 535 nm; Perkin Elmer) or on the PheraSTAR (Excitation at 485 nm and Emission at 535 nm; BMG Labtech).
Example 10: USP7 Assay B (Ubitquin-Rhodamine 110 Assay)
Each assay was performed in a final volume of 20 μL in assay buffer containing 20 mM Tris-HCl (pH 8.0, (1M Tris-HCl, pH 8.0 solution; Corning 46-031-CM)), 2 mM CaCl2 (1M Calcium Chloride solution; Sigma #21114) 1 mM GSH (L-Glutathione reduced; Sigma #G4251), 0.01% Prionex (0.22 μM filtered, Sigma #G-0411), and 0.01% Triton X-100. Stock compound solutions were stored at −20° C. as 10 mM in DMSO. Up to 1 month prior to the assay, 2 mM test compounds were pre-dispensed into assay plates (Black, low volume; Corning #3820) and frozen at −20° C. Prestamped assay plates were allowed to come to room temperature on the day of the assay. For the screen, 100 nL of 2 mM was pre-dispensed for a final screening concentration of 10 μM (DMSO(fc)=0.5%). For follow-up studies, 250 nL of an 8-point, 3-fold serial dilution in DMSO was pre-dispensed into assay plates for a final test concentration of 25 μM-11 nM (1.25% DMSO final concentration). Unless otherwise indicated, all follow-up assays were run on triplecate plates. Enzyme (USP7, construct Met (208-1102)-TEV-6*His; Viva Q93009-1) concentration and incubation times were optimized for the maximal signal-to-background while maintaining initial velocity conditions at a fixed substrate concentration. The final concentration of the enzyme in the assay was either 75 pM or 250 pM. Final substrate (Ub-Rh110; Ubiquitin-Rhodamine 110, R&D Systems (biotechne)#U-555) concentration was 25 nM with [Ub-Rh110]<<Km. Pre-stamped with compounds were either not preincubated or preincubated with USP7 between 30 to 120 min prior to the addition of 10 μL of 2×Ub-Rh110 to compound plates. Plates were incubated stacked for either 23 or 45 min at room temperature before fluorescence was read on the Envision (Excitation at 485 nm and Emission at 535 nm; Perkin Elmer) or on the PheraSTAR (Excitation at 485 nm and Emission at 535 nm; BMG Labtech).
Data from USP7 Assays A and B were reported as percent inhibition (inh) compared with control wells based on the following equation: % inh=1−((FLU−AveLow)/(AveHigh−AveLow)) where FLU=measured Fluorescence. AveLow=average Fluorescence of no enzyme control (n=16). AveHigh=average Fluorescence of DMSO control (n=16). IC50 values were determined by curve fitting of the standard 4 parameter logistic fitting algorithm included in the Activity Base software package: IDBS XE Designer Model205. Data is fitted using the Levenburg Marquardt algorithm.

Chain of USP7 (Q93009 208-1102): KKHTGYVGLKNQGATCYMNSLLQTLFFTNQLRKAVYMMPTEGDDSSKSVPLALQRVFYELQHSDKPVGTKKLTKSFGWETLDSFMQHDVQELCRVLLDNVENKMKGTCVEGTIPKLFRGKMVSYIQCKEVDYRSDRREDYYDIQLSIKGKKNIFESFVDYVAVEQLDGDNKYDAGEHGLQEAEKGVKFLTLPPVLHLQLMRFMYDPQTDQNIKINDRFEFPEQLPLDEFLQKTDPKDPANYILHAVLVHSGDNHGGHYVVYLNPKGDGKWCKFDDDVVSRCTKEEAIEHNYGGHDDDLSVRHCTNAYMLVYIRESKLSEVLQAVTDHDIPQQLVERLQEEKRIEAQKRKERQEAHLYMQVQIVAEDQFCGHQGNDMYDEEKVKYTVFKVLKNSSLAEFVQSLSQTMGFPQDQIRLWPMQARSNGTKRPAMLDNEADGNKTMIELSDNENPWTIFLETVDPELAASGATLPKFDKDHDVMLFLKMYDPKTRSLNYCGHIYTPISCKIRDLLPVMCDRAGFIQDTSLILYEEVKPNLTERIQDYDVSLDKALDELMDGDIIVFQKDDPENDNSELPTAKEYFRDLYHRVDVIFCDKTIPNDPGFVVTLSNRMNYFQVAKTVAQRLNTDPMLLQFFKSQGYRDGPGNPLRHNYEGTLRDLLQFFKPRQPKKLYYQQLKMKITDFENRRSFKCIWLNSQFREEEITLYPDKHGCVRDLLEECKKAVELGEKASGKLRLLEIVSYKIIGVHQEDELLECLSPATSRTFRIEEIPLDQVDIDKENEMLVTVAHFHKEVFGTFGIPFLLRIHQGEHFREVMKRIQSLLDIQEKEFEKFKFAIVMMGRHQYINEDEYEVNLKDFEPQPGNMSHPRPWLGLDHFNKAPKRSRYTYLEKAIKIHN

Row | SMILES | pIC50
1 | COc1ccc2c(=O)n(CC3(O)CCN(C(=O)CC(C)c4ccccc4)CC3)cnc2c1 (stereo not shown) [Compound I-1, 3-((4-hydroxy-1-(3-phenylbutanoyl)piperidin-4-yl)methyl)-7-methoxyquinazolin-4(3H)-one] | > 6.70
2 | Cc1cccc2c(=O)n(CC3(O)CCN(C(=O)CC(C)c4ccccc4)CC3)cnc12 (stereo not shown) [Compound I-2, 3-((4-hydroxy-1-(3-phenylbutanoyl)piperidin-4-yl)methyl)-8-methylquinazolin-4(3H)-one] | > 6.70
3 | CC(CC(=O)N1CCC(O)(Cn2cnc3cc(N)ccc3c2=O)CC1)c1ccccc1 (stereo not shown) [Compound I-3, 7-amino-3-((4-hydroxy-1-(3-phenylbutanoyl)piperidin-4-yl)methyl)quinazolin-4(3H)-one] | > 6.70
4 | CC(=O)Nc1ccc2c(=O)n(CC3(O)CCN(C(=O)CC(C)c4ccccc4)CC3)cnc2c1 (stereo not shown) [Compound I-4, N-(3-((4-hydroxy-1-(3-phenylbutanoyl)piperidin-4-yl)methyl)-4-oxo-3,4-dihydroquinazolin-7-yl)acetamide] | > 6.70
5 | COc1ccc2c(=O)n(CC3(O)CCN(C(=O)C[C@@H](C)c4ccccc4)CC3)cnc2c1 [Compound I-5, (R)-3-((4-hydroxy-1-(3-phenylbutanoyl)piperidin-4-yl)methyl)-7-methoxyquinazolin-4(3H)-one] | > 6.70
6 | Cc1cccc2c(=O)n(CC3(O)CCN(C(=O)C[C@@H](C)c4ccccc4)CC3)cnc12 [Compound I-6, (R)-3-((4-hydroxy-1-(3-phenylbutanoyl)piperidin-4-yl)methyl)-8-methylquinazolin-4(3H)-one] | > 6.70
7 | Cc1ccc2c(=O)n(CC3(O)CCN(C(=O)c4ccc5c(c4)CCN5Cc4ccccc4)CC3)cnc2c1 [Compound I-7, 3-((1-(1-benzylindoline-5-carbonyl)-4-hydroxypiperidin-4-yl)methyl)-7-methylquinazolin-4(3H)-one] | 5.00 to 6.00
8 | O=C(c1ccccc1)N1CCC(O)(Cn2cnc3cc(-c4ccccc4)ccc3c2=O)CC1 [Compound I-8, 3-((1-benzoyl-4-hydroxypiperidin-4-yl)methyl)-7-phenylquinazolin-4(3H)-one] | < 5.00
9 | O=C(c1ccccc1)N1CCC(O)(Cn2cnc3c(-c4ccccc4)cccc3c2=O)CC1 [Compound I-9, 3-((1-benzoyl-4-hydroxypiperidin-4-yl)methyl)-8-phenylquinazolin-4(3H)-one] | 5.00 to 6.00
10 | O=C(c1ccc(F)cc1)N1CCC(O)(Cn2cnc3c(Oc4ccc(F)cc4)cccc3c2=O)CC1 [Compound I-10, 3-((1-(4-fluorobenzoyl)-4-hydroxypiperidin-4-yl)methyl)-8-(4-fluorophenoxy)quinazolin-4(3H)-one] | 5.00 to 6.00
11 | CC(CC(=O)N1CCC(O)(Cn2cnc3ncccc3c2=O)CC1)c1ccccc1 (stereo not shown) [Compound I-11, 3-((4-hydroxy-1-(3-phenylbutanoyl)piperidin-4-yl)methyl)pyrido[2,3-d]pyrimidin-4(3H)-one] | < 5.00
12 | CC(CC(=O)N1CCC(O)(Cn2cnc3cnccc3c2=O)CC1)c1ccccc1 (stereo not shown) [Compound I-12, 3-((4-hydroxy-1-(3-phenylbutanoyl)piperidin-4-yl)methyl)pyrido[3,4-d]pyrimidin-4(3H)-one] | 5.00 to 6.00
13 | CC(CC(=O)N1CCC(O)(Cn2cnc3cccnc3c2=O)CC1)c1ccccc1 (stereo not shown) [Compound I-13, 3-((4-hydroxy-1-(3-phenylbutanoyl)piperidin-4-yl)methyl)pyrido[3,2-d]pyrimidin-4(3H)-one] | 6.00 to 6.70
